According to patent US20240376099A1, “COMPOUNDS AND COMPOSITIONS AS INHIBITORS OF ENDOSOMAL TOLL-LIKE RECEPTORS” (Novartis AG, priority 2016, published 2024):
pIC50: −log10 of the molar value.

target: T1, TLR8 (Homo sapiens, UniProt Q9NR97); experiment: huPBMC TLR8 Antagonist IL-6 TR-FRET Assay; type: cell-based; design: Fresh blood was collected from normal human donors; endogenous in cells; host or cells: human PBMCs from fresh donor blood; details: human PBMCs stimulated with ssRNA40 1 μg/ml (DOTAP), 14-16 hrs; IL-6 TR-FRET read-out
T1 sequence (Q9NR97 27-1041): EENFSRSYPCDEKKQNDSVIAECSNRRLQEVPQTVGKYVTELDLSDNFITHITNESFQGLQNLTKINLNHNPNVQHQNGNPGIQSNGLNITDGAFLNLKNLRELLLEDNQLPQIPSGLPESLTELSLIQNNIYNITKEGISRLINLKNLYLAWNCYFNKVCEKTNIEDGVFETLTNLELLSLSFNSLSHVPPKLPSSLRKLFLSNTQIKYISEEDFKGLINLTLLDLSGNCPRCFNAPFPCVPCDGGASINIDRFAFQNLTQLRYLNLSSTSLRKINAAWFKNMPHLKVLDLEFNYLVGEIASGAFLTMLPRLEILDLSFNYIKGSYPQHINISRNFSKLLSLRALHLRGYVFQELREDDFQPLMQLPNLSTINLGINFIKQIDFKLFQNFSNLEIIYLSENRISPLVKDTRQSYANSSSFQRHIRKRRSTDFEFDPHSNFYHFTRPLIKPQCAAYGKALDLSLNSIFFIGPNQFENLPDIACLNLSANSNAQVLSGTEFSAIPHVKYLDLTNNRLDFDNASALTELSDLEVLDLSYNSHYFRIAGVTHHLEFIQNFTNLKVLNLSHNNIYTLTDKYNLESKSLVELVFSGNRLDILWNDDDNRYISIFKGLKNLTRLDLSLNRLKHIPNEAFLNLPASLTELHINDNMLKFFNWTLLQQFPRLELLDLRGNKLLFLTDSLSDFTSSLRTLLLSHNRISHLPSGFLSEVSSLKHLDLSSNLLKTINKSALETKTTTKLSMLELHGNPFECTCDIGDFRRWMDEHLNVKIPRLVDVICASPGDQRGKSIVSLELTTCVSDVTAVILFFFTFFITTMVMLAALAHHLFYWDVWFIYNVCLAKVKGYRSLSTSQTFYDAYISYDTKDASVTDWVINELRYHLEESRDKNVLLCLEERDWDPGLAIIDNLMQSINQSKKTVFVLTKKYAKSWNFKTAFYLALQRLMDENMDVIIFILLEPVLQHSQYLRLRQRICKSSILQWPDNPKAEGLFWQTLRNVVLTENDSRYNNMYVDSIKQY
Outline: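 Human PBMCs from fresh donor blood (150,000 cells/well) stimulated 14–16 h at 37 °C with DOTAP-complexed ssRNA40 (final 1 μg/ml for TLR8, 10 μg/mL for TLR7) or ODN2216 (final 0.3 μM, TLR9), 0.25% DMSO, ten-point 1/3 compound dilutions. Supernatant IL-6 read by HTRF (TLR8); IFNα by IFNα2b AlphaLISA (TLR7/TLR9).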

Row | pIC50 | Compound
1 | 6.20 | Cc1cc(N2CCc3c(c(C(F)(F)F)nn3CC34CCC(N)(CC3)CC4)C2)c2cnn(C)c2n1 [compound 45, 4-((5-(1,6-dimethyl-1H-pyrazolo[3,4-b]pyridin-4-yl)-3-(trifluoromethyl)-4,5,6,7-tetrahydro-1H-pyrazolo[4,3-c]pyridin-1-yl)methyl)bicyclo[2.2.2]octan-1-amine]
2 | 6.89 | Cc1cc(N2CCc3c(c(C)nn3CC34CCC(NCC(=O)N5CCCCC5)(CC3)CC4)C2)c2cnn(C)c2n1 [compound 99, 2-((4-((5-(1,6-dimethyl-1H-pyrazolo[3,4-b]pyridin-4-yl)-3-methyl-4,5,6,7-tetrahydro-1H-pyrazolo[4,3-c]pyridin-1-yl)methyl)bicyclo[2.2.2]octan-1-yl)amino)-1-(piperidin-1-yl)ethanone]
3 | 7.82 | Cc1cc(N2CCc3c(c(C)nn3CC34CCC(NC(=O)CN5CCCC5)(CC3)CC4)C2)c2cnn(C)c2n1 [compound 100, N-(4-((5-(1,6-dimethyl-1H-pyrazolo[3,4-b]pyridin-4-yl)-3-methyl-4,5,6,7-tetrahydro-1H-pyrazolo[4,3-c]pyridin-1-yl)methyl)bicyclo[2.2.2]octan-1-yl)-2-(pyrrolidin-1-yl)acetamide]
4 | 6.44 | COCCNC12CCC(Cn3nc(C)c4c3CCN(c3cc(C)nc5c3cnn5C)C4)(CC1)OC2 [compound 102, 1-((5-(1,6-dimethyl-1H-pyrazolo[3,4-b]pyridin-4-yl)-3-methyl-4,5,6,7-tetrahydro-1H-pyrazolo[4,3-c]pyridin-1-yl)methyl)-N-(2-methoxyethyl)-2-oxabicyclo[2.2.2]octan-4-amine]
5 | 7.57 | Cc1cc(N2CCc3c(c(C)nn3CC34CCC(NC(=O)CCN(C)C)(CC3)CC4)C2)c2cnn(C)c2n1 [compound 105, N-(4-((5-(1,6-dimethyl-1H-pyrazolo[3,4-b]pyridin-4-yl)-3-methyl-4,5,6,7-tetrahydro-1H-pyrazolo[4,3-c]pyridin-1-yl)methyl)bicyclo[2.2.2]octan-1-yl)-3-(dimethylamino)propanamide]
6 | 6.77 | Cc1cc(N2CCc3c(c(C)nn3CC34CCC(NCC(=O)N5CCCC5)(CC3)CC4)C2)c2cnn(C)c2n1 [compound 106, 2-((4-((5-(1,6-dimethyl-1H-pyrazolo[3,4-b]pyridin-4-yl)-3-methyl-4,5,6,7-tetrahydro-1H-pyrazolo[4,3-c]pyridin-1-yl)methyl)bicyclo[2.2.2]octan-1-yl)amino)-1-(pyrrolidin-1-yl)ethanone]
7 | 8.22 | Cc1cc(N2CCc3c(c(C)nn3CC34CCC(N5CCO[C@H](C)C5)(CC3)CC4)C2)c2cnn(C)c2n1 [compound 107, (R)-4-(4-((5-(1,6-dimethyl-1H-pyrazolo[3,4-b]pyridin-4-yl)-3-methyl-4,5,6,7-tetrahydro-1H-pyrazolo[4,3-c]pyridin-1-yl)methyl)bicyclo[2.2.2]octan-1-yl)-2-methylmorpholine]
8 | 7.80 | Cc1cc(N2CCc3c(c(C)nn3CC34CCC(N5CCO[C@@H](C)C5)(CC3)CC4)C2)c2cnn(C)c2n1 [compound 109, (S)-4-(4-((5-(1,6-dimethyl-1H-pyrazolo[3,4-b]pyridin-4-yl)-3-methyl-4,5,6,7-tetrahydro-1H-pyrazolo[4,3-c]pyridin-1-yl)methyl)bicyclo[2.2.2]octan-1-yl)-2-methylmorpholine]
9 | 7.80 | Cc1cc(N2CCc3c(c(C)nn3CC34CCC(N5C[C@@H](C)O[C@@H](C)C5)(CC3)CC4)C2)c2cnn(C)c2n1 [compound 110, (2S,6R)-4-(4-((5-(1,6-dimethyl-1H-pyrazolo[3,4-b]pyridin-4-yl)-3-methyl-4,5,6,7-tetrahydro-1H-pyrazolo[4,3-c]pyridin-1-yl)methyl)bicyclo[2.2.2]octan-1-yl)-2,6-dimethylmorpholine]
10 | 7.41 | Cc1cc(N2CCc3c(c(C)nn3CC34CCC(N5C[C@H](C)O[C@@H](C)C5)(CC3)CC4)C2)c2cnn(C)c2n1 [compound 111, (2S,6S)-4-(4-((5-(1,6-dimethyl-1H-pyrazolo[3,4-b]pyridin-4-yl)-3-methyl-4,5,6,7-tetrahydro-1H-pyrazolo[4,3-c]pyridin-1-yl)methyl)bicyclo[2.2.2]octan-1-yl)-2,6-dimethylmorpholine]
11 | 7.25 | Cc1cc(N2CCc3c(c(C)nn3CC34CCC(NCC5CCC5)(CC3)CO4)C2)c2cnn(C)c2n1 [compound 112, N-(cyclobutylmethyl)-1-((5-(1,6-dimethyl-1H-pyrazolo[3,4-b]pyridin-4-yl)-3-methyl-4,5,6,7-tetrahydro-1H-pyrazolo[4,3-c]pyridin-1-yl)methyl)-2-oxabicyclo[2.2.2]octan-4-amine]
12 | 7.80 | Cc1cc(N2CCc3c(c(C)nn3CC34CCC(N5C[C@@H](C)O[C@H](C)C5)(CC3)CC4)C2)c2cnn(C)c2n1 [compound 113, (2R,6R)-4-(4-((5-(1,6-dimethyl-1H-pyrazolo[3,4-b]pyridin-4-yl)-3-methyl-4,5,6,7-tetrahydro-1H-pyrazolo[4,3-c]pyridin-1-yl)methyl)bicyclo[2.2.2]octan-1-yl)-2,6-dimethylmorpholine]
13 | 7.82 | CCNCC(=O)NC12CCC(Cn3nc(C)c4c3CCN(c3cc(C)nc5c3cnn5C)C4)(CC1)CC2 [compound 114, N-(4-((5-(1,6-dimethyl-1H-pyrazolo[3,4-b]pyridin-4-yl)-3-methyl-4,5,6,7-tetrahydro-1H-pyrazolo[4,3-c]pyridin-1-yl)methyl)bicyclo[2.2.2]octan-1-yl)-2-(ethylamino)acetamide]
14 | 6.61 | Cc1cc(N2CCc3c(c(C)nn3CC34CCC(NC(=O)CCN)(CC3)CC4)C2)c2cnn(C)c2n1 [compound 115, 3-amino-N-(4-((5-(1,6-dimethyl-1H-pyrazolo[3,4-b]pyridin-4-yl)-3-methyl-4,5,6,7-tetrahydro-1H-pyrazolo[4,3-c]pyridin-1-yl)methyl)bicyclo[2.2.2]octan-1-yl)propanamide]
15 | 7.17 | Cc1cc(N2CCc3c(c(C)nn3CC34CCC(N5CC6(COC6)C5)(CC3)CC4)C2)c2cnn(C)c2n1 [compound 116, 6-(4-((5-(1,6-dimethyl-1H-pyrazolo[3,4-b]pyridin-4-yl)-3-methyl-4,5,6,7-tetrahydro-1H-pyrazolo[4,3-c]pyridin-1-yl)methyl)bicyclo[2.2.2]octan-1-yl)-2-oxa-6-azaspiro[3.3]heptane]
16 | 6.63 | CN[C@H](C)C(=O)NC12CCC(Cn3nc(C)c4c3CCN(c3cc(C)nc5c3cnn5C)C4)(CC1)CC2 [compound 117, (R)-N-(4-((5-(1,6-dimethyl-1H-pyrazolo[3,4-b]pyridin-4-yl)-3-methyl-4,5,6,7-tetrahydro-1H-pyrazolo[4,3-c]pyridin-1-yl)methyl)bicyclo[2.2.2]octan-1-yl)-2-(methylamino)propanamide]
17 | 6.71 | CN[C@@H](C)C(=O)NC12CCC(Cn3nc(C)c4c3CCN(c3cc(C)nc5c3cnn5C)C4)(CC1)CC2 [compound 118]
18 | 7.41 | CNCC(=O)NC12CCC(Cn3nc(C)c4c3CCN(c3cc(C)nc5c3cnn5C)C4)(CC1)CC2 [compound 121, N-(4-((5-(1,6-dimethyl-1H-pyrazolo[3,4-b]pyridin-4-yl)-3-methyl-4,5,6,7-tetrahydro-1H-pyrazolo[4,3-c]pyridin-1-yl)methyl)bicyclo[2.2.2]octan-1-yl)-2-(methylamino)acetamide]
19 | 6.92 | Cc1cc(N2CCc3c(c(C)nn3CC34CCC(NCC(C)(C)O)(CC3)CC4)C2)c2cnn(C)c2n1 [compound 123, 1-((4-((5-(1,6-dimethyl-1H-pyrazolo[3,4-b]pyridin-4-yl)-3-methyl-4,5,6,7-tetrahydro-1H-pyrazolo[4,3-c]pyridin-1-yl)methyl)bicyclo[2.2.2]octan-1-yl)amino)-2-methylpropan-2-ol]
20 | < 5.00 | CCNCC(=O)NC12CCC(Cn3nc(C)c4c3CCN(c3cc(C)nc5cn[nH]c35)C4)(CC1)CC2 [compound 124, 2-(ethylamino)-N-(4-((3-methyl-5-(5-methyl-1H-pyrazolo[4,3-b]pyridin-7-yl)-4,5,6,7-tetrahydro-1H-pyrazolo[4,3-c]pyridin-1-yl)methyl)bicyclo[2.2.2]octan-1-yl)acetamide]
